Measurements: publication PMC7918733, “Biological Profiling of Semisynthetic C19-Functionalized Ferruginol and Sugiol Analogues” (Antibiotics, 2021)
Where two headings read alike, the source gives them in different places.

How the values were obtained:
P. falciparum 3D7 strain = test: Antiplasmodial DNA stain-based growth assay; assay type: cell-based; settings: Plasmodium falciparum, 3D7; chloroquine-sensitive strain; 72 h incubation; read-out: P. falciparum 3D7 EC50
Protocol: (§1) Assays were performed by using previously described DNA stain-based assay and methods, including cytotoxicity assays.

P. falciparum K1 strain = test: Antiplasmodial DNA stain-based growth assay; assay type: cell-based; settings: Plasmodium falciparum, K1; chloroquine-resistant strain; 72 h incubation; read-out: P. falciparum K1 EC50
Protocol: as §1

BJ = test: Cytotoxicity on mammalian cell lines; assay type: cell-based; settings: Homo sapiens, read-out: BJ EC50
Protocol: as §1

HEK293 = test: Cytotoxicity on mammalian cell lines; assay type: cell-based; settings: Homo sapiens, HEK293; read-out: HEK293 EC50
Protocol: as §1

HepG2 = test: Cytotoxicity on mammalian cell lines; assay type: cell-based; settings: Homo sapiens, HepG2; read-out: HepG2 EC50
Protocol: as §1

RAJI = test: Cytotoxicity on mammalian cell lines; assay type: cell-based; settings: Homo sapiens, read-out: RAJI EC50
Protocol: as §1

A549 (Lung) [1] = test: Antiproliferative SRB assay; assay type: cell-based, human; settings: Homo sapiens, A549, mean ± SD of at least two experiments
Protocol: (§2) Cells, cultures and the activity test of abietane analogs followed reported methods. The SRB assay was performed as previously described, and the antiproliferative activity was given as GI50 values, which were calculated according to NCI formulas.

SW1573 (Lung) [2] = test: Antiproliferative SRB assay; assay type: cell-based, human; settings: Homo sapiens, SW1573, mean ± SD of at least two experiments
Protocol: as §2

WiDr (Colon) [3] = test: Antiproliferative SRB assay; assay type: cell-based, human; settings: Homo sapiens, WiDr, mean ± SD of at least two experiments
Protocol: as §2

HBL-100 (Breast) [4] = test: Antiproliferative SRB assay; assay type: cell-based; settings: Homo sapiens, mean ± SD of at least two experiments
Protocol: as §2

HeLa (Cervix) [5] = test: Antiproliferative SRB assay; assay type: cell-based; settings: Homo sapiens, mean ± SD of at least two experiments
Protocol: as §2

T-47D (Breast) [6] = test: Antiproliferative SRB assay; assay type: cell-based; settings: Homo sapiens, T47D, mean ± SD of at least two experiments
Protocol: as §2

[7] = Cytotoxicity assay on J774 macrophages; settings: mouse, Macrophages J774 CC50, 50% reduction of cell viability
Protocol: (§3) The compounds were additionally studied in a panel of mammalian cell lines to determine cytotoxicity.
(§4) The parasites, culture procedure and the activity of functionalized abietane analogs on Leishmania promastigotes were performed according to the method previously reported by us [28], while the intracellular amastigote assay was performed on L. amazonensis and L. infantum according to the fluorometric test [29]. The J774 cell culture and the cytotoxicity assay was carried out according to our previously described method [30].

[8] = target: T1, GABAA receptor subtype (α1β2γ2S) (Homo sapiens, UniProt P14867+P18507+P47870); test: Two-microelectrode voltage-clamp in Xenopus laevis oocytes; settings: for activation at 10 µM: read-out: IGABA Potentiation of 10 µM (%); for activation at 100 µM: read-out: IGABA Potentiation of 100 µM (%)
T1 sequence (P14867 28-456): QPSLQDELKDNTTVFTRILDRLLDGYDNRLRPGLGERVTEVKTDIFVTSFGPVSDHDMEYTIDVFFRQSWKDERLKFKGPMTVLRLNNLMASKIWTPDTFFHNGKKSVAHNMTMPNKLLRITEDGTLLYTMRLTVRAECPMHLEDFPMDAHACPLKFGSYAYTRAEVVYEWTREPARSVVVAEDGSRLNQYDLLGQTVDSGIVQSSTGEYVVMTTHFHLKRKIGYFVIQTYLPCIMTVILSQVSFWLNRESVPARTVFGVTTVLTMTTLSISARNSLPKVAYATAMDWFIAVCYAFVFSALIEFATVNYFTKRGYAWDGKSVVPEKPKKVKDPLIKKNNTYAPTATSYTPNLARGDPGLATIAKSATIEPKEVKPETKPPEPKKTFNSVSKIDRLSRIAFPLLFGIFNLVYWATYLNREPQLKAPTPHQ
T1 sequence (P47870 26-512): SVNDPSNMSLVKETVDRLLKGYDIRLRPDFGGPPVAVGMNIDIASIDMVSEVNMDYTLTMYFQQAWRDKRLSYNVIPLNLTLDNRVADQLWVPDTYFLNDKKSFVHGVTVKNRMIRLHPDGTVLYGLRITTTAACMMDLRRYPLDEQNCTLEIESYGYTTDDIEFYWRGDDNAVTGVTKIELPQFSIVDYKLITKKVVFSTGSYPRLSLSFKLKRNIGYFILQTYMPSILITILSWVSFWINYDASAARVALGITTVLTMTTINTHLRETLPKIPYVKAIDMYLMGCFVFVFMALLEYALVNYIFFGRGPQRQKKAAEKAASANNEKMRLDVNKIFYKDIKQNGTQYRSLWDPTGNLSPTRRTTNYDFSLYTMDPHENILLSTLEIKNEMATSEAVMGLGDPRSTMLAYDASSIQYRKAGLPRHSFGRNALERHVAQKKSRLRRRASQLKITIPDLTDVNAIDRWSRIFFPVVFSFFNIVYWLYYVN
T1 sequence (P18507 40-467 isoform P18507-1 limits assumed): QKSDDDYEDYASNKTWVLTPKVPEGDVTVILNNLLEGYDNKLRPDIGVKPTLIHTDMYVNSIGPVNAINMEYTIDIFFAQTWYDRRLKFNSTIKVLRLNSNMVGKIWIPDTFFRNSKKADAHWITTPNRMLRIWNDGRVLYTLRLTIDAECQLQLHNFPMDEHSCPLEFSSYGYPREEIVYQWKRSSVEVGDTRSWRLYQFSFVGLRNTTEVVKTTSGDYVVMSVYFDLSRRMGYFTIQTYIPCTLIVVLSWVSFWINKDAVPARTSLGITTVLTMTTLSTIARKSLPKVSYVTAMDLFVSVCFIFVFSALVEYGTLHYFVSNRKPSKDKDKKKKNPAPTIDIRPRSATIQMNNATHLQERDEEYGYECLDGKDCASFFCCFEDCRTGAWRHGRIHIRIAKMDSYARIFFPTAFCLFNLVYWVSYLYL
Protocol: All molecules were tested at concentrations of 10, 100 μM and compared with dehydroabietic acid (DHA) (3) as a reference [16].

[9] = tested on: L. infantum promastigotes; design: method as in PMID 30840453; settings: C18-congeners, read-out: L. infantum IC50 ± SD; cited from earlier work
[10] = tested on: L. donovani promastigotes; settings: C18-congeners, read-out: L. donovani IC50 ± SD; cited from earlier work
[11] = tested on: L. amazonensis promastigotes; design: method as in PMID 30840453; settings: C18-congeners, read-out: L. amazonensis IC50 ± SD; cited from earlier work
[12] = tested on: L. guyanensis promastigotes; design: method as in PMID 30840453; settings: C18-congeners, read-out: L. guyanensis IC50 ± SD; cited from earlier work
L. infantum amastigotes [13] = tested on: L. infantum amastigotes; design: method as in PMID 30840453; settings: C18-congener, read-out: L. infantum IC50 ± SD; cited from earlier work
[14] = tested on: L. amazonensis amastigotes; design: method as in PMID 30840453; settings: C18-congener, read-out: L. amazonensis IC50 ± SD; cited from earlier work
A549 (Lung) [15] = settings: C18-congeners; cited from earlier work
HBL-100 (Breast) [16] = settings: C18-congeners; cited from earlier work
HeLa (Cervix) [17] = settings: C18-congeners; cited from earlier work
SW1573 (Lung) [18] = settings: C18-congeners; cited from earlier work
T-47D (Breast) [19] = settings: C18-congeners; cited from earlier work
WiDr (Colon) [20] = settings: C18-congeners; cited from earlier work
Macrophages J774 = settings: read-out: Macrophages J774 CC50; C18-congeners; cited from earlier work
[21] = target: T1, GABAA receptor subtype (α1β2γ2S); design: expressed in transfected cells; host or cells: Xenopus laevis oocytes; settings: C18-congeners, cited from earlier work
L. infantum amastigotes [22] = test: Intracellular amastigote assay (fluorometric test); assay type: cell-based; settings: Leishmania infantum, read-out: L. infantum IC50 ± SD
[23] = tested on: L. amazonensis amastigotes; test: Intracellular amastigote assay (fluorometric test); assay type: cell-based; settings: Leishmania amazonensis, read-out: L. amazonensis IC50 ± SD
in vitro = settings: mouse, Macrophages J774 CC50
Protocol: as §3, §4

[24] = tested on: L. infantum promastigotes; test: Antileishmanial in vitro promastigote assay; settings: Leishmania infantum, read-out: L. infantum IC50 ± SD
Protocol: as §3, §4

[25] = tested on: L. donovani promastigotes; test: Antileishmanial in vitro promastigote assay; settings: Leishmania donovani, read-out: L. donovani IC50 ± SD
Protocol: as §3, §4

[26] = tested on: L. amazonensis promastigotes; test: Antileishmanial in vitro promastigote assay; settings: Leishmania amazonensis, read-out: L. amazonensis IC50 ± SD
Protocol: as §3, §4

[27] = tested on: L. guyanensis promastigotes; test: Antileishmanial in vitro promastigote assay; settings: Leishmania guyanensis, read-out: L. guyanensis IC50 ± SD
Protocol: as §3, §4

Row | Structure (SMILES) | EC50 (P. falciparum 3D7 strain) | EC50 (P. falciparum K1 strain) | EC50 (BJ) | EC50 (HEK293) | EC50 (HepG2) | EC50 (RAJI) | GI50 (A549 (Lung) [1]) | GI50 (SW1573 (Lung) [2]) | GI50 (WiDr (Colon) [3]) | GI50 (HBL-100 (Breast) [4]) | GI50 (HeLa (Cervix) [5]) | GI50 (T-47D (Breast) [6]) | CC50 [7] | activation at 10 µM [8] | activation at 100 µM [8] | further results
1 | COC(=O)[C@@]1(C)CCC[C@]2(C)c3cc(O)c(C(C)C)cc3CC[C@@H]12 [Compound 12] | 4.7 µM | 2.1 µM | > 25 µM | > 25 µM | > 25 µM | > 25 µM | 2.3 ± 1.5 µM | 12 ± 4.1 µM | 3.7 ± 1.9 µM | 11 ± 3 µM | 5.1 ± 1.9 µM | 4.2 ± 1.3 µM | 65.4 ± 7 µM | 1 ± 3% | 65 ± 6% | –
2 | COC(=O)[C@]1(C)CCC[C@]2(C)c3cc(C(C)=O)c(C(C)C)cc3CC[C@@H]12 [Compound 9b] | – | – | – | – | – | – | – | – | – | – | – | – | – | – | – | IC50 [9]: 2.5 ± 0.6 µM; IC50 [10]: 14.8 ± 0.9 µM; IC50 [11]: 11.6 ± 0.6 µM; IC50 [12]: 14.2 ± 0.4 µM; IC50 (L. infantum amastigotes [13]): 37.2 ± 2.4 µM; IC50 [14]: 31.4 ± 6.2 µM; GI50 (A549 (Lung) [15]): 18 ± 2.3 µM; GI50 (HBL-100 (Breast) [16]): 15 ± 1.2 µM; GI50 (HeLa (Cervix) [17]): 11 ± 1 µM; GI50 (SW1573 (Lung) [18]): 11 ± 4.6 µM; GI50 (T-47D (Breast) [19]): 10 ± 1.5 µM; GI50 (WiDr (Colon) [20]): 17 ± 2.4 µM; CC50 (Macrophages J774): 130 ± 8.9 µM; IGABA Potentiation of 10 µM (%) ([21]; 10 µM): 2.7 ± 0.9%; IGABA Potentiation of 100 µM (%) ([21]; 100 µM): −2.9 ± 5.1%
3 | COC(=O)[C@@]1(C)CCC[C@]2(C)c3cc(OC(C)=O)c(C(C)C)cc3C(=O)C[C@@H]12 [Compound 11] | 7.1 µM | 5.7 µM | > 25 µM | > 25 µM | > 25 µM | > 25 µM | 3.1 ± 0.9 µM | 17 ± 7.5 µM | 5.2 ± 3.1 µM | 7.4 ± 0.7 µM | 5.6 ± 2.9 µM | 6.1 ± 1.9 µM | 45.8 ± 5.6 µM | 1 ± 3% | 75 ± 4% | –
4 | CC(C)c1cc2c(cc1O)C1(C)CCCC(C)(C(=O)O)C1CC2=O (single isomer, unassigned; (+)) [Compound 8a, (+)-4-epi-liquiditerpenoic acid A] | > 15 µM | > 15 µM | > 25 µM | > 25 µM | > 25 µM | > 25 µM | 12 ± 2.9 µM | 41 ± 17 µM | 33 ± 15 µM | 39 ± 14 µM | 12 ± 3.8 µM | 31 ± 12 µM | – | -8 ± 1% | -8 ± 3% | IC50 (L. infantum amastigotes [22]): 20.1 ± 2 µM; IC50 [23]: 21.4 ± 2.3 µM; CC50 (in vitro): > 200 µM; IC50 [24]: 100 ± 20 µM; IC50 [25]: 84.4 ± 31.6 µM; IC50 [26]: 94.5 ± 6.5 µM; IC50 [27]: 3 ± 0.9 µM
